Measurements taken from ChEMBL document CHEMBL1201862, “PubChem BioAssay data set” (2004).
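Where inhibition never reached the appropriate level, the endpoint shown equals the highest concentration tested. Otherwise, values were interpolated linearly from a five-concentration, 48-hour dose response in 96-well plates. GI50 is the concentration that inhibits growth by half.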 Calls of active or inactive are those of the source. No stated cut-off is given here; in the data, active = GI50 up to about 1.1 µM and inactive = higher.

Legend:
Assay in all cases: NCI tumour cell line growth inhibition, 48 h
786-0 = test system: 786-0
A498 = test system: A498
ACHN = test system: ACHN
CAKI-1 = test system: CAKI-1
HCC 2998 = test system: HCC 2998
HOP-92 = test system: HOP-92
MCF7 = test system: MCF7
MDA-MB-231 = test system: MDA-MB-231
MDA-MB-435 = test system: MDA-MB-435
MDA-N = test system: MDA-N
Malme-3M = test system: Malme-3M
NCI-H226 = test system: NCI-H226
NCI-H23 = test system: NCI-H23
OVCAR-3 = test system: OVCAR-3
OVCAR-4 = test system: OVCAR-4
OVCAR-8 = test system: OVCAR-8
SF-539 = test system: SF-539
SK-MEL-2 = test system: SK-MEL-2
SNB-75 = test system: SNB-75
U-251 = test system: U-251

| SMILES | GI50 (786-0) | GI50 (A498) | GI50 (ACHN) | GI50 (CAKI-1) | GI50 (HCC 2998) | GI50 (HOP-92) | GI50 (MCF7) | GI50 (MDA-MB-231) | GI50 (MDA-MB-435) | GI50 (MDA-N) | GI50 (Malme-3M) | GI50 (NCI-H226) | GI50 (NCI-H23) | GI50 (OVCAR-3) | GI50 (OVCAR-4) | GI50 (OVCAR-8) | GI50 (SF-539) | GI50 (SK-MEL-2) | GI50 (SNB-75) | GI50 (U-251) |
| --- | --- | --- | --- | --- | --- | --- | --- | --- | --- | --- | --- | --- | --- | --- | --- | --- | --- | --- | --- | --- |
| COC(=O)[C@@H]1CN(C(=O)CCc2ccccc2)C(=O)N1C(=O)OCc1ccccc1 | > 100 µM (inactive) | > 100 µM (inactive) | > 100 µM (inactive) | > 100 µM (inactive) | > 100 µM (inactive) | > 100 µM (inactive) | > 100 µM (inactive) | > 100 µM (inactive) | > 100 µM (inactive) | > 100 µM (inactive) | > 100 µM (inactive) | > 100 µM (inactive) | > 100 µM (inactive) | > 100 µM (inactive) | > 100 µM (inactive) | > 100 µM (inactive) | > 100 µM (inactive) | > 100 µM (inactive) | > 100 µM (inactive) | > 100 µM (inactive) |
| CCOC(=O)C1C(=O)CC(O)(c2ccccc2)C(C(=O)OCC)C1c1ccc(OC)cc1 (stereo not given) | 22.6 µM (inactive) | 42.2 µM (inactive) | 43.4 µM (inactive) | 44.8 µM (inactive) | 37.9 µM (inactive) | 15.3 µM (inactive) | 27 µM (inactive) | 22.2 µM (inactive) | 3.24 µM (inactive) | 3.18 µM (inactive) | 26.2 µM (inactive) | 32.4 µM (inactive) | 31 µM (inactive) | 12.4 µM (inactive) | 28.6 µM (inactive) | 33.4 µM (inactive) | 15.6 µM (inactive) | 20.1 µM (inactive) | 0.479 µM (active) | 16 µM (inactive) |
| C#CC(O)Cc1ccc(OC)c2occc12 (stereo not given) | > 100 µM (inactive) | > 100 µM (inactive) | > 100 µM (inactive) | > 100 µM (inactive) | > 100 µM (inactive) | > 100 µM (inactive) | > 100 µM (inactive) | > 100 µM (inactive) | > 100 µM (inactive) | > 100 µM (inactive) | > 100 µM (inactive) | > 100 µM (inactive) | > 100 µM (inactive) | > 100 µM (inactive) | > 100 µM (inactive) | > 100 µM (inactive) | > 100 µM (inactive) | > 100 µM (inactive) | 52.1 µM (inactive) | > 100 µM (inactive) |
| Cc1ccc(S(=O)(=O)N/N=C/C(=C/c2ccc(Cl)cc2)CC(/C=N/NS(=O)(=O)c2ccc(C)cc2)=C\c2ccc(Cl)cc2)cc1 | 2.19 µM (inactive) | 4.94 µM (inactive) | 6.04 µM (inactive) | 5.37 µM (inactive) | 3.21 µM (inactive) | 2.23 µM (inactive) | 2.86 µM (inactive) | 10.2 µM (inactive) | 3.72 µM (inactive) | 4.45 µM (inactive) | 8.2 µM (inactive) | 15 µM (inactive) | 6.93 µM (inactive) | 3.07 µM (inactive) | 5.42 µM (inactive) | 2.63 µM (inactive) | 12.1 µM (inactive) | 7.76 µM (inactive) | 3.96 µM (inactive) | 4.78 µM (inactive) |
| CC(C)CNC(=O)CCc1cccc2c1oc1c(CCN)cccc12 | 12.4 µM (inactive) | 15 µM (inactive) | 12.8 µM (inactive) | 12.9 µM (inactive) | 14.2 µM (inactive) | 5.7 µM (inactive) | 20.6 µM (inactive) | 15 µM (inactive) | 12.2 µM (inactive) | 20.9 µM (inactive) | 16.6 µM (inactive) | 16.9 µM (inactive) | 12.5 µM (inactive) | 5.65 µM (inactive) | 18 µM (inactive) | 18.1 µM (inactive) | 16 µM (inactive) | 18.5 µM (inactive) | 5.62 µM (inactive) | 5.85 µM (inactive) |
| N#Cc1c(NC(=O)C(F)(F)F)sc2c3c(=O)c4ccccc4c(=O)c=3oc3ccccc3c12 | 25.6 µM (inactive) | 33.3 µM (inactive) | 21.1 µM (inactive) | 15.4 µM (inactive) | 13.9 µM (inactive) | 19.7 µM (inactive) | 20.2 µM (inactive) | 24.3 µM (inactive) | 17.1 µM (inactive) | 18.3 µM (inactive) | 1.1 µM (active) | 8.02 µM (inactive) | 9.84 µM (inactive) | 10.8 µM (inactive) | 14.7 µM (inactive) | 15.7 µM (inactive) | 7.24 µM (inactive) | 15 µM (inactive) | 16.8 µM (inactive) | 14.7 µM (inactive) |
| COC(=O)/C=C\c1ccc2c(c1)CC1(C2)Cc2ccc(/C=C/C(=O)OC)cc2C1 (stereo not given) | 19.6 µM (inactive) | > 10 µM (inactive) | > 31.6 µM (inactive) | 0.918 µM (active) | > 31.6 µM (inactive) | 28.4 µM (inactive) | 21.2 µM (inactive) | 17.2 µM (inactive) | > 31.6 µM (inactive) | > 31.6 µM (inactive) | 29.4 µM (inactive) | > 31.6 µM (inactive) | > 31.6 µM (inactive) | > 31.6 µM (inactive) | 22.8 µM (inactive) | 30.8 µM (inactive) | 30 µM (inactive) | > 10 µM (inactive) | 1.09 µM (active) | 20.7 µM (inactive) |
| Cc1nc2ccccc2n1Cc1ccc(NC(=S)Nc2ccccc2)cc1 | > 100 µM (inactive) | 28.7 µM (inactive) | 35.2 µM (inactive) | 77.4 µM (inactive) | 92 µM (inactive) | 61.9 µM (inactive) | 27.4 µM (inactive) | 36.4 µM (inactive) | 46.9 µM (inactive) | 31 µM (inactive) | 30.4 µM (inactive) | 82.4 µM (inactive) | 83.9 µM (inactive) | 27.9 µM (inactive) | 28.6 µM (inactive) | 60.1 µM (inactive) | 23.8 µM (inactive) | 73.8 µM (inactive) | 63.8 µM (inactive) | 82.6 µM (inactive) |
| COC(=O)C(Cc1c[nH]c2ccccc12)NC1=Nc2ccncc2S(=O)(=O)N1c1ccccc1 (stereo not given) | 33.3 µM (inactive) | > 100 µM (inactive) | 29.9 µM (inactive) | 39.4 µM (inactive) | 27.5 µM (inactive) | 20.7 µM (inactive) | 33.2 µM (inactive) | 52.1 µM (inactive) | 32.1 µM (inactive) | 45.1 µM (inactive) | 19 µM (inactive) | 14.1 µM (inactive) | 41.5 µM (inactive) | 34.2 µM (inactive) | 24.7 µM (inactive) | 34 µM (inactive) | 17.1 µM (inactive) | 38.1 µM (inactive) | 20.7 µM (inactive) | 41.5 µM (inactive) |
| COC(=O)C1=C(OC(=O)/C(=C/c2ccccc2)c2ccc(Cl)cc2Cl)C(C(=O)OC)[C@@]2(O)[C@@H](C(=O)OC)[C@H](C)C[C@@H]1[C@@H]2C(=O)OC (stereo not given in full) | > 100 µM (inactive) | > 100 µM (inactive) | 42 µM (inactive) | > 100 µM (inactive) | > 100 µM (inactive) | > 100 µM (inactive) | > 100 µM (inactive) | > 100 µM (inactive) | > 100 µM (inactive) | > 100 µM (inactive) | > 100 µM (inactive) | > 100 µM (inactive) | > 100 µM (inactive) | > 100 µM (inactive) | > 100 µM (inactive) | > 100 µM (inactive) | > 100 µM (inactive) | > 100 µM (inactive) | 75.9 µM (inactive) | > 100 µM (inactive) |
| CC(C)(C)OC(=O)CN1CCN(CC(=O)N2CCN(C(=O)OCc3ccccc3)CC2)CCN(CC(=O)OC(C)(C)C)CCN(CC(=O)N2CCN(C(=O)OCc3ccccc3)CC2)CC1 | 2.21 µM (inactive) | 15.4 µM (inactive) | 7.73 µM (inactive) | 10.1 µM (inactive) | 1.69 µM (inactive) | 2.6 µM (inactive) | 2.35 µM (inactive) | 1.64 µM (inactive) | 2.13 µM (inactive) | 2.18 µM (inactive) | 2.33 µM (inactive) | 3.84 µM (inactive) | 2.6 µM (inactive) | 2.83 µM (inactive) | 2.73 µM (inactive) | 2.83 µM (inactive) | 2.17 µM (inactive) | 1.82 µM (inactive) | 1.35 µM (inactive) | 1.7 µM (inactive) |
| COc1ccc(NC(=S)N/N=C/c2cccc(C)n2)cc1 | 3.98 µM (inactive) | 18.8 µM (inactive) | 2.83 µM (inactive) | 4.25 µM (inactive) | 8.41 µM (inactive) | 5.65 µM (inactive) | 3.59 µM (inactive) | 3.9 µM (inactive) | 1.04 µM (active) | 1.41 µM (inactive) | 3.13 µM (inactive) | 10.2 µM (inactive) | 6.05 µM (inactive) | 3.48 µM (inactive) | > 24.1 µM (inactive) | 3.74 µM (inactive) | 6.12 µM (inactive) | 6.4 µM (inactive) | 4.93 µM (inactive) | 4.09 µM (inactive) |
| CCOC(=O)c1cn2c(n1)sc1cc(Cl)ccc12 | 6.58 µM (inactive) | 33.6 µM (inactive) | 14.5 µM (inactive) | 19.2 µM (inactive) | > 100 µM (inactive) | > 100 µM (inactive) | 4.2 µM (inactive) | > 100 µM (inactive) | 5.68 µM (inactive) | 2.71 µM (inactive) | 13.1 µM (inactive) | 72.6 µM (inactive) | 62.2 µM (inactive) | 14.1 µM (inactive) | > 100 µM (inactive) | 21.9 µM (inactive) | 5.78 µM (inactive) | > 100 µM (inactive) | 31 µM (inactive) | 14.1 µM (inactive) |
